Test results as given in US8986676B2, “MNTF differentiation and growth of stem cells” (Genervon Biopharmaceuticals LLC, priority 2005, dated 2015).
“Also recorded” adds a separate entry of the source. Ends that are not written are not given here.

Experiments:
[1] = system: ES cell-derived motor neurons; experiment: Survival of ES cell-derived motor neurons in dissociated cultures; type: cell-based, mouse; conditions: for enhancement of survival of stem cell derived motor neurons: percentage survivability on day ten, FIG. 4; for maintaining dissociated cultures: dissociated ES-derived motor neuron cultures
Experimental: Mouse embryonic stem (ES) cells were differentiated in the presence of RA and Hg-agonist (Curis, Inc.). On day four, the differentiated embryoid bodies were partially dissociated with 0.05% trypsin or Collagenase and Dispase (1 mg/ml in PBS) and plated on coverslips coated with PLL-Laminin and matrigel.
The dissociated cultures were then treated with GDNF (10 ng/ml), MNTF (all seven forms) at different doses (0.1 μg/ml, 1 μg/ml, 10 μg/ml and 50 μg/ml), and dbcAMP (1 μM), NT3 (10 μg/ml) at day five.
Neurons and their axons were identified by using the fluorescence produced by GFP expressed from the HB9 promoter. Neurite outgrowth can be quantified as described previously [Harper, J. M. et al. (2004) PNAS 101, 7123-7128, incorporated herein by reference] at day six, eight and ten. Percentage survivability was calculated on day ten by counting the total number of cells with existing axons.

[2] = system: motor neuron derived cell lines; conditions: compared with MNTF1-F6 33-mer; cited from earlier work
motor neurons = conditions: in vivo, compared with MNTF1-F6 33-mer; cited from earlier work
mouse ES cells [3] = experiment: MNTF induced differentiation in the presence of Shh inhibitor (GFP fluorescence of embryoid bodies); type: cell-based; conditions: inhibitor 5 μM, day 5; for effect of inhibitor on MNTF induced differentiation of ES cells: RA + MNTF 33mer at 10 μg/ul; for effect of inhibitor on the GFP fluorescence effect of Shh-Agonist: RA + Shh agonist
Experimental: The ES cells were differentiated as mentioned above and at day 0 they were treated with RA+Shh-Agonist; RA+Shh Agonist+Cyclopamine-KAAD (5 μM); RA+MNTF (33mer at 10 μg/ul); and RA+Cyclopamine-KAAD (5 μM)+MNTF (33mer at 10 μg/ul). The inhibitor was pretreated for an hour before the addition of the other components.
At day 5 of differentiation the embryoid bodies were checked for GFP fluoresence indicating the differentiation of the ES cells into a motor neuron phenotype.
Receptor kinase studies were used to measure the affinity of MNTF for the Insulin Receptor (IR). […] We then tested whether signals through either of these pathways are possible in generating motor neurons. […] Thus, MNTF is still capable of generating post-mitotic mature motor neurons.
FIG. 5 illustrates a comparison of the expression of GFP fluorescence under the control of the motor neuron specific HB9 promoter at day 5 of differentiation in response to control (A), RA (3); RA/Shh (C); cyclopamine-KAAD, RA/Shh (D); RA and MNTF 33mer (E); Cyclopamine-KAAD, RA and MNTF 33mer (F).

[4] = system: ES cells derived from an HB9-GFP-transgenic mouse; experiment: Differentiation of ES cells into motor neurons (eGFP under HB9 promoter in embryoid bodies); type: cell-based; conditions: for expression of eGFP under the control of the HB9 promoter (green fluorescence of EBs) compared with RA and Shh agonist: EBs treated with RA (1 μM) and peptide; for differentiation of ES cells into motor neurons: in the presence of RA; for concentration at which elevated fluorescence was detectable (as low as) / concentration at which fluorescence appeared to be optimal: with RA; for concentration at which fluorescence appeared to be optimal: in this experiment
Experimental: ES cells were derived from an HB9-GFP-transgenic mouse and fluoresce green upon adoption of a motoneuron phenotype [Wichterle, H. et al. ([…]) Cell 110, 385-397, incorporated herein by reference]. The mouse ES cells were maintained in a proliferative and undifferentiated state in the presence of murine LIF (Chemicon). The ES cells were cultured on a feeder layer of primary mouse embryonic fibroblasts that were mitomycin treated.
Mouse ES cells were separated from the feeder layer of fibroblasts. This was done by trypsinizing and plating the cell mixture on cell culture flasks coated with 0.1% gelatin. The fibroblasts attached specifically on the gelatin leaving a pure population of floating ES cells. The floating ES cells were collected and resuspended in differentiating medium. This stage was called “d−1”. The ES cells formed embryoid bodies (EBs) and 24 hours later (“d0”) were exposed to RA (1 μM)+MNTF or RA (1 μM)+Shh agonist (1 μM). MNTF peptides (all six forms) were tested at a final concentration range of 0.1 μg/ml-150 μg/ml.
The differentiation assay was carried for six days from “d−1” stage.

[5] = system: anterior horn motor neurons; conditions: rat lumbar spinal cord explants; cited from earlier work
surviving motor neurons = conditions: axotomized rat peripheral nerves, versus untreated controls; cited from earlier work
spinal cord hemi-section = conditions: rats, MNTF1-containing gel sections near nerve graft junctions; cited from earlier work
wobbler mice = conditions: MNTF1-containing gel sections implanted at C7-T3 region; cited from earlier work
mouse ES cells [6] = experiment: Differentiation of ES cells in the presence of IR or IGF1-R inhibitor (GFP fluorescence of day 5 embryoid bodies); type: cell-based; conditions: for effect of inhibitor on MNTF induced differentiation (GFP fluorescence): HNMPA(AM)3 15 μM or PPP 1 μM, RA/MNTF33 or RA/MNTF10, FIG. 6
IR/IGF1R [pYpY1162/1163] = experiment: Autophosphorylation of Insulin/IGF receptor(s), western blot of embryoid bodies; type: cell-based, mouse; conditions: for autophosphorylation of IR/IGF-R (pTyr 1162/1163): RA (1 μM) + MNTF 33mer (10 μg/ml), FIG. 3
Experimental: Embryoid bodies (EBs) were exposed to RA (1 μM)+MNTF 33mer (10 μg/ml) or RA (1 μM)+MNTF 33mer (10 μg/ml)+/−HNMPA-(AM)3 (50 nM). Cells were harvested at 0, 15 min, 30 min, 1 h, 2 h and 4 h time points.
The cells were harvested as described previously [Barber, A. J. et al., (2001) J. Biol. Chem. 276, 32814-32821]. Protein concentrations were measured with the Pierce BCA reagent, and all samples were adjusted for equal protein before SDS-polyacrylamide gel electrophoresis.
Cell lysates were immunoblotted with polyclonal antibodies against phosphotyrosines 1162-1163 of IR/IGFR1 following the manufacturer's directions or standard techniques. Protein bands were detected by enhanced chemical fluorescence. Densitometric analysis of enhanced chemical fluorescence immunoblots was performed with ImageQuant (Molecular Dynamics, Sunnyvale, Calif.).

## WMLSAFS [7mer]
[1]
  enhancement of survival of stem cell derived motor neurons: sufficient to enhance survival of stem cell derived motor neurons
[2]
  proliferation of motor neuron derived cell lines: sufficient to stimulate the proliferation of motor neuron derived cell lines

## FSRYARCLAEG (Synthetic MNTF peptide analog) [11mer]
[1]
  enhancement of survival of stem cell derived motor neurons: sufficient to enhance survival of stem cell derived motor neurons

## FSRYAR [6mer]
[1]
  enhancement of survival of stem cell derived motor neurons: sufficient to enhance survival of stem cell derived motor neurons
[2]
  proliferation of motor neuron derived cell lines: sufficient to stimulate the proliferation of motor neuron derived cell lines
Motor neurons
  selective reinnervation of muscle targets by motor neurons: sufficient to direct selective reinnervation of muscle targets

## 3-keto-N-(aminoethyl-aminocaproyl-dihydrocinnamoyl)cyclopamine [Cyclopamine-KAAD]
Mouse ES cells [3]
  effect of inhibitor on MNTF induced differentiation of ES cells: did not block MNTF induced differentiation of ES cells
  effect of inhibitor on the GFP fluorescence effect of Shh-Agonist: blocked the GFP fluoresence effect of Shh-Agonist
Mouse ES cells [3]; listed as cyclopamine-KAAD
  effect of inhibitor on MNTF induced differentiation of ES cells: did not block the activity of MNTF induced differentiation
  effect of inhibitor on the GFP fluorescence effect of Shh-Agonist: blocks the effect of Shh on mouse ES cells

## MLSAFSRYAR (Synthetic MNTF peptide analog) [10mer]
[4]; FIG. 2
  expression of eGFP under the control of the HB9 promoter (green fluorescence of EBs) compared with RA and Shh agonist: to the same extent or greater than EBs treated with RA and Shh agonist
  concentration at which elevated fluorescence was detectable (as low as): 0.1 µg/mL
[4]
  differentiation of ES cells into motor neurons: effectively substitute for Sonic Hedgehog
  concentration at which fluorescence appeared to be optimal: about 10 μg/ml
[4]; listed as MNTF 10-mer
  differentiation of ES cells into motor neurons: capable of inducing differentiation of ES cells into differentiated motor neurons
[4]; in vitro, FIG. 2
  concentration at which differentiation is stimulated (as low as): 0.01 µg/mL
  effectiveness at stimulating differentiation of embryonic stem cells into motor neurons compared with MNTF 33mer: at least as effective the full-length MNTF 33mer
[1]
  maintaining dissociated cultures: effective at maintaining dissociated cultures up to 10 days
  enhancement of survival of stem cell derived motor neurons: nearly as effective as the MNTF 33mer

## MNTF1: naturally occurring and recombinant motoneuronotrophic factor 1 polypeptides; in b137 the word stands for the synthetic 33-mer (LGTFWGDTLNCWMLSAFSRYARCLAEGHDGPTQ)
[5]
  survival in vitro of anterior horn motor neurons: selectively enhance the survival
Surviving motor neurons
  percentage of surviving motor neurons: markedly higher percentage of surviving motor neurons than untreated controls
Spinal cord hemi-section
  surviving motor neurons and functional recovery: greater numbers of surviving motor neurons, improved recovery of motor and sensory function
Wobbler mice
  progression of symptoms: delayed the progression of symptoms in wobbler mice

## COc1cc([C@@H]2c3cc4c(cc3[C@H](O)[C@H]3COC(=O)[C@@H]23)OCO4)cc(OC)c1OC [picrodophyllin]
Mouse ES cells [6]
  effect of inhibitor on MNTF induced differentiation (GFP fluorescence): does not effectively block the activity of MNTF induced differentiation

## MLSAFSRYARCLAEGHDGPTQ (CWMLSAFSRYARC; Synthetic MNTF peptide sequence) [21mer]
[1]
  enhancement of survival of stem cell derived motor neurons: sufficient to enhance survival of stem cell derived motor neurons

## CC(=O)OCOC(c1ccc2ccccc2c1)P(=O)(OCOC(C)=O)OCOC(C)=O (stereo not drawn) [HNMPA-(AM)3, Hydroxy-2-naphthalenylmethylphosphonic acid trisacetoxymethyl ester]
IR/IGF1R [pYpY1162/1163]; HNMPA-(AM)3 50 nM with RA + MNTF 33mer (10 μg/ml)
  effect of IR inhibitor on autophosphorylation of IR/IGF-R in MNTF 33mer treated cells: reduced autophosphorylation within 15 min
Mouse ES cells [6]
  effect of inhibitor on MNTF induced differentiation (GFP fluorescence): blocks the effect of MNTF on mouse ES cells
Mouse ES cells [6]; HNMPA(AM)3 15 μM, FIG. 6
  effect of inhibitor on Shh induced differentiation (GFP fluorescence): did not block the activity of Shh induced differentiation

## 33mer: 33 amino acid MNTF1-F6 sequence (SEQ ID NO:1), synthesized by solid phase synthesis (LGTFWGDTLNCWMLSAFSRYARCLAEGHDGPTQ)
[4]; FIG. 2
  expression of eGFP under the control of the HB9 promoter (green fluorescence of EBs) compared with RA and Shh agonist: to the same extent or greater than EBs treated with RA and Shh agonist
  concentration at which elevated fluorescence was detectable (as low as): 0.1 µg/mL
[4]
  differentiation of ES cells into motor neurons: effectively substitute for Sonic Hedgehog
  concentration at which fluorescence appeared to be optimal: about 10 μg/ml
[4]; listed as 33-mer
  differentiation of ES cells into motor neurons: induced differentiation of ES cells into motor neurons; also recorded: capable of inducing differentiation of ES cells into differentiated motor neurons
IR/IGF1R [pYpY1162/1163]
  autophosphorylation of IR/IGF-R (pTyr 1162/1163): autophosphorylation of IR/IGF-R
IR/IGF1R [pYpY1162/1163]; listed as MNTF1 33-mer
  autophosphorylation of IR/IGF-R (pTyr 1162/1163): associated with autophosphorylation of the insulin receptor (IR) and/or insulin-like growth factor receptor (IGF-R)
[1]
  maintaining dissociated cultures: effective at maintaining dissociated cultures up to 10 days
